US9314510B2, “Human laminin α2 chain LG3 domain and active peptides promoting cell adhesion, spreading, migration, and neurite outgrowth” (SNU R&DB Foundation, priority 2011, dated 2016)
Ends that are not written are not given here.

B1: rLG3: recombinant His6-tagged human laminin α2 chain LG3 domain, amino acids 2537 to 2745 (protein, listed as Homo sapiens)
chain: VELSPVPIDVGTEINLSFSTKNESGIILLGSGGTPAPPRRKRRQTGQAYYVILLNRGRLEVHLSTGARTMRKIVIRPEPNLFHDGREHSVHVERTRGIFTVQVDENRRYMQNLTVEQPIEVKKLFVGGAPPEFQPSPLRNIPPFEGCIWNLVINSVPMDFARPVSFKNADIGRCAHQKLREDEDGAAPAEIVIQPEPVPTPAFPTPTPV
modifications: His6 tag

What was measured:
[1] = test system: normal human dermal fibroblasts (NHDF); experiment: Cell adhesion to Ln2-LG3-P2-coated plates, NHDF; assay type: cell-based; conditions: NHDF at passage 4, 62.5 μg/mL, 1 h
Procedure: Normal human dermal fibroblasts (NHDF) isolated from hypodermal tissue of normal human skin were cultured in DMEM containing antibiotics and 10% FBS. Cells at passage 4 were used for the following experiments.

[2] = test system: normal human oral keratinocytes (NHOK); experiment: Cell adhesion to Ln2-LG3-P2-coated plates, NHOK; assay type: cell-based; conditions: NHOK at passage 2, 62.5 μg/mL, 1 h
Procedure: Normal human oral keratinocytes (NHOK) isolated from epidermal tissue of human gingiva were cultured in KGM (by Clonetics, San Diego, Calif.). Cells at passage 2 were used for the following experiments.

PC12 cells [3] = experiment: Immunostaining of actin stress fibers and focal adhesions; assay type: cell-based, rat; conditions: PC12 cells on coated chamber slides, 3 h, serum-free
Procedure: Specifically, for immunostaining, PC12 cells were incubated on Lab-Tek chamber slides (Nalge Nunc International, Rochester, N.Y.) coated with laminin (5 μg/mL), rLG domain proteins (25 μg/mL), or Scrambled peptide (SP) (25 μg/well) in serum-free medium for 3 h at 37° C. Lab-Tek chamber slides were coated with BSA for the control. After rinsing with PBS, PC12 cells were fixed with 3.7% formalin for 20 min and permeabilized with 0.5% Triton X-100 for 5 min. PC12 cells were incubated with primary antibodies for 12 h at 4° C. The primary antibodies used were 1:500 anti-vinculin (Sigma-Aldrich 9131), or 1:300 rhodamin-phalloidin (Invitrogen R154) antibodies. After rinsing with PBS, PC12 cells were immunostained with FITC-conjugated anti-mouse IgG antibody (Jackson ImmunoResearch Laboratories, West Grove, Pa.) or rhodamin-conjugated anti-mouse IgG antibody (Santa Cruz Biotechnology) for 1 h at room temperature. After being washed three times with PBS, the stained PC12 cells were mounted and photographed using a confocal laser scanning microscope (FV300; Olympus, Japan).

Schwann cells = experiment: Schwann cell spreading on coated plates; assay type: cell-based, human; conditions: plates coated with 62.5 μg/mL peptide, 3 h
Procedure: Schwann cells, nerve cells used in the present invention, were obtained from human skin-derived precursors by differentiating the cells toward the Schwann cell lineage for two weeks and identified by immunocytochemical markers specific to Schwann cells, such as S100D and glial fibrillary acidic protein (GFAP) (Biernaskie, J. A. et al., Nat. Protoc., 2006).
Schwann cells were cultured on plates which were coated in the same way for 3 h in serum-free medium and the cell spreading of Schwann cells was observed.

[4] = test system: normal human epidermal keratinocytes (NHEK); experiment: Cell adhesion to Ln2-LG3-P2-coated plates, NHEK; assay type: cell-based; conditions: NHEK at passage 2, 62.5 μg/mL, 1 h
Procedure: Normal human epidermal keratinocytes (NHEK) isolated from epidermal tissue of normal human epidermal skin were cultured in keratinocyte growth medium (KGM, manufactured by Clonetics, San Diego, Calif.). Cells at passage 2 were used for the following experiments.

PC12 cells [5] = experiment: Cell adhesion assay on coated plates (crystal violet, absorbance 570 nm); assay type: cell-based, rat; conditions: 1 h, serum-free; for cell adhesion: PC12 cells on coated plates, laminin 5 μg/mL, rLG proteins 25 μg/mL, peptides 62.5 μg/mL (0 to 125 μg/mL in FIG. 2B)
Procedure: The cell adhesion assay was performed as described in a paper published previously by the present inventors (Kim, J. M., et al, Exp. Cell Res, 2005).
Specifically, 24-well culture plates (Nunc, Denmark) were coated with 5 μg/mL human placental laminin (Sigma-Aldrich, St. Louis, Mo.) or 25 μg/mL rLG domain proteins for 12 h at 4° C. The peptides were also coated on the plates by drying for 12 h at room temperature. The substrate-coated plates were blocked with 1% heat-inactivated bovine serum albumin (BSA) in PBS for 1 h at 37° C. and then washed with PBS.
The cells were trypsinized with trypsin/EDTA and resuspended in serum-free culture medium. The cells were added at a density of 2×10^5 cells/500 μL to each plate and incubated in serum-free culture medium for 1 h at 37° C. After incubation, unattached cells were removed by rinsing twice with PBS. The attached cells were fixed with 10% formalin for 15 min and then stained with 0.5% crystal violet for 1 h. Plates were gently washed with distilled water three times and dissolved with 2% SDS for 5 min. Absorbance was measured at 570 nm using a microplate reader (BioRad).
First, PC12 cells were cultured on plates coated with varying amounts of five kinds of Ln2-PG3 peptides and then cell adhesion was observed. The peptides were coated in concentrations ranging from 0 to 125 μg/mL on plates by drying them for 12 h at room temperature.
The present inventors compared the cellular activities of Ln2-LG3-P2 peptide to scrambled peptide (SEQ ID NO:20, NWEIRCIPGNPF) of Ln2-LG3-P2 peptide and Ln2-LG3-P1 peptide to Ln2-LG3-P5 peptide at a concentration of 62.5 μg/mL where the cell adhesion activity was the maximum. […] PC12 cells were cultured on plates which were coated in the same way for 3 h in serum-free medium and the cell spreading was observed.
Specifically, to observe cell adhesion, spreading, migration, and neurite outgrowth promotion, the methods described in Experimental examples <2-1> to <2-3> were used and PC12 cells were cultured on plates coated with laminin (5 μg/mL), rLG3 (25 μg/mL), and rLG3-M1 (25 μg/mL) and observed. To observe cell adhesion, PC12 cells were incubated on the coated plates for 1 h and to observe cell spreading, PC12 cells were incubated on the coated plates for 3 h. To observe cell migration, PC12 cells were incubated on the coated plates for […].
(§1) To measure cell adhesion, spreading, migration, and neurite outgrowth promotive activities of PC12 cells using the prepared synthetic peptides that are N- and C-terminal truncated or C-terminal added peptides of the Ln2-LG3-P2 peptide, peptides described in Table 1 were coated onto plates at 62.5 μg/mL and PC12 cells were seeded thereon.

PC12 cells [6] = experiment: Summary of cell adhesion, spreading, migration and neurite outgrowth promotive effects; assay type: cell-based, rat; conditions: summary statement of the description
Procedure: as §1

PC12 cells [7] = experiment: Neurite outgrowth assay; assay type: cell-based, rat; conditions: PC12 cells on coated plates, serum-free, 24 h + 72 h
Procedure: Laminin, rLG domain protein, and the peptide were coated onto plates and cells were seeded on the plates in serum-free medium and incubated for 24 h. After changing with serum-free medium again, cells were further cultured for 72 h and neurite outgrowth was examined.

PC12 cells [8] = experiment: Inhibition of cell adhesion to laminin by rLG3 / rLG3-M1 pretreatment; assay type: cell-based, rat; conditions: laminin 5 μg/mL
Procedure: In addition, PC12 cells were pretreated with rLG3 (250 or 500 μg/mL) or vehicle (phosphate buffer, pH 3.0) for 30 min and then seeded on plates coated with laminin (5 μg/mL) for 30 min in serum-free medium and cell adhesion was observed.

| Molecule | cell adhesion activity [1] | cell adhesion activity [2] | actin stress fiber formation and focal adhesions (PC12 cells [3]) | cell spreading (immunostaining) (PC12 cells [3]) | Schwann cell spreading (Schwann cells) | reduction of Schwann cell spreading compared to laminin (Schwann cells; laminin 5 μg/mL) | cell adhesion activity [4] | cell adhesion (PC12 cells [5]) | coating concentration at which cell adhesion activity reached the maximum level (PC12 cells [5]; PC12 cells) | cell adhesion, spreading, migration, and neurite outgrowth promotive effects (PC12 cells [6]) | neurite outgrowth (PC12 cells [7]) | inhibition of cell adhesion to laminin (PC12 cells [8]; PC12 cells pretreated with 250 μg/mL for 30 min) | inhibition of cell adhesion to laminin (PC12 cells [8]; PC12 cells pretreated with 500 μg/mL for 30 min) |
| --- | --- | --- | --- | --- | --- | --- | --- | --- | --- | --- | --- | --- | --- |
| RNIPPFEGCIWN (RNIPPFEGCIWN-NH2; listed as Homo sapiens) [Ln2-LG3-P2, 12-mer peptide, position 2675 to 2686 in human laminin α2 chain] | strong cell adhesion activity | strong cell adhesion activity | formed stress fiber formation, and focal adhesions but to a lesser degree than those on laminin | spread well | substantially higher spreading than BSA or scrambled peptide | approximately 50% | strong cell adhesion activity | promoted the cell adhesion | 62.5 µg/mL | occurred the most actively |  |  |  |
| laminin [reference compound] |  |  | formed actin stress fibers and focal adhesions | spread very well |  |  |  | promoted cell adhesion |  |  |  |  |  |
| B1 |  |  | formed stress fiber formation, and focal adhesions but to a lesser degree than those on laminin | spread well |  |  |  | adhered to rLG1, rLG3, and rLG4 in a dose-dependent manner |  |  | supports cell adhesion, spreading, migration, and neurite outgrowth | 23% | 48% |
